# Experimental data: US7074789B2, “Kinase inhibitors” (Amgen Inc., priority 1999, dated 2006)
# Legend:
# Assay type in all cases: biochemical
# [1] = molecular target: T1, Lck (Homo sapiens, UniProt P06239); assay: Kinase inhibition assay (33P transfer), Lck; settings: Table 3; read-out: Lck-1
# T1 construct: Kinases are expressed as either kinase domains or full length constructs; made in house
# Procedure, shortened: (§1)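 Steps: express kinase as GST or polyHistidine fusion in E. coli or High Five cells; optionally co-express or mix with regulatory polypeptides; incubate with 33P-ATP and plate-attached poly(Glu,Tyr) 4:1 or poly(Arg,Ser) 3:1; wash with 0.5% phosphoric acid; count by liquid scintillation.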
# [2] = molecular target: T2, Lyn (Homo sapiens, UniProt P07948); assay: Kinase inhibition assay (33P transfer), Lyn; settings: Table 6, Lyn-1 kinase inhibition class
# T2 construct: Kinases are expressed as either kinase domains or full length constructs; made in house
# Procedure, shortened: (§2)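 Kinase domains or full-length enzymes, GST- or polyHis-tagged, were expressed in E. coli or baculovirus High Five cells and affinity-purified. Transfer of 33PO4 from ATP onto plate-bound poly(Glu,Tyr) 4:1 or poly(Arg,Ser) 3:1 was counted by liquid scintillation after a 0.5% phosphoric acid wash. IC50 = concentration halving incorporation.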
# [3] = molecular target: T3, Src (Homo sapiens, UniProt P12931); assay: Kinase inhibition assay (33P transfer), Src; settings: Table 6, Src-1 kinase inhibition class
# T3 construct: Kinases are expressed as either kinase domains or full length constructs; made in house
# T3 sequence (P12931 whole entry, species assumed, the tested form may be a part): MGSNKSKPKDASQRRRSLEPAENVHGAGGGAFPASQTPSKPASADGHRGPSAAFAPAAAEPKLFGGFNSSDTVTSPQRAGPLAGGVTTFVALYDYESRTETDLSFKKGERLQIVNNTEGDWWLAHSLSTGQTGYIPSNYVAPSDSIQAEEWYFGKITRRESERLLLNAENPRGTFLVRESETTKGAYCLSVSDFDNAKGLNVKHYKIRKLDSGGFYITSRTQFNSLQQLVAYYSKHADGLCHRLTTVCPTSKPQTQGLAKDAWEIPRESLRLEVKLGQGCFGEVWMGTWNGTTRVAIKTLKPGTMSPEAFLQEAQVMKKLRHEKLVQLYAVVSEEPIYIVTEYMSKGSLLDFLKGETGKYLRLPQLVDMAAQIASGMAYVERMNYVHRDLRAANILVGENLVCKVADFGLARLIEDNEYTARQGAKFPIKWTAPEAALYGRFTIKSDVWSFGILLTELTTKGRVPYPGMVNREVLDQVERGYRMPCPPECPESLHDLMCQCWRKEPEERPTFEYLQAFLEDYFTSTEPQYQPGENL
# Procedure, shortened: as §2
# [4] = molecular target: T4, Fyn (Homo sapiens, UniProt P06241); assay: Kinase inhibition assay (33P transfer), Fyn; settings: read-out: Fyn-1
# T4 construct: Kinases are expressed as either kinase domains or full length constructs; made in house
# T4 sequence (P06241 whole entry, species assumed, the tested form may be a part): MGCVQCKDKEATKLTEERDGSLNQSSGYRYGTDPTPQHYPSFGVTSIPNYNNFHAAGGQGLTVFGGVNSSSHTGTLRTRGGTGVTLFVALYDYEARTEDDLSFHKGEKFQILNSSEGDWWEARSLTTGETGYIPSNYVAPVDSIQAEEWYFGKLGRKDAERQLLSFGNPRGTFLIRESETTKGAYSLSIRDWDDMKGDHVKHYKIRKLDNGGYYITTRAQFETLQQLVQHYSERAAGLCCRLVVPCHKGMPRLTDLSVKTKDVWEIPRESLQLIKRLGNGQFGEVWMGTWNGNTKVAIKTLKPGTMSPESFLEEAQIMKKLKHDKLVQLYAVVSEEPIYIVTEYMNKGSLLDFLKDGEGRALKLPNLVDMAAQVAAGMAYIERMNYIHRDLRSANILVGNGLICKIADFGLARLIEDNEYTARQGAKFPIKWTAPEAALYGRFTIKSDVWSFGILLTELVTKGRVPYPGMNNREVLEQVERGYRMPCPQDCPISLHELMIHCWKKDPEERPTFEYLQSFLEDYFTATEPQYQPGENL
# Procedure, shortened: as §2
# [5] = molecular target: T5, Zap-70 (Homo sapiens, UniProt P43403); assay: Kinase inhibition assay (33P transfer), Zap-70; settings: Table 3; read-out: Zap-1
# T5 construct: Kinases are expressed as either kinase domains or full length constructs; made in house
# T5 sequence (P43403 1-619): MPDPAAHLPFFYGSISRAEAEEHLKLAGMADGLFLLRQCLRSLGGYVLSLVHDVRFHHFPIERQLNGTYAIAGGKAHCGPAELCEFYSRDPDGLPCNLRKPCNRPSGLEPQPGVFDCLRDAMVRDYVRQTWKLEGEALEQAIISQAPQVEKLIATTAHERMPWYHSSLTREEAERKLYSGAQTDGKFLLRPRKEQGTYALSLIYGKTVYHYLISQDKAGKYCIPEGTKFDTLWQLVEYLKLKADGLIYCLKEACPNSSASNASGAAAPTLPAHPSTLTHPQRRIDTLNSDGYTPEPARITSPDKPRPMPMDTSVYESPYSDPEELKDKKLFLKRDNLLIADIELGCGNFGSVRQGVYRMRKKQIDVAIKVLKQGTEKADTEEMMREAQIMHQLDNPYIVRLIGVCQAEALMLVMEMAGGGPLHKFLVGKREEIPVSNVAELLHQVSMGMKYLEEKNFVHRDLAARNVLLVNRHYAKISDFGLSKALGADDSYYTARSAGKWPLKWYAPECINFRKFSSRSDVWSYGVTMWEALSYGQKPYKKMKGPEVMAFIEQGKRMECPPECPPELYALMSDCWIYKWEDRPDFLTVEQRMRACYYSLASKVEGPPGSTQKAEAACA
# Procedure, shortened: as §1
# [6] = molecular target: T6, Itk (Homo sapiens, UniProt Q08881); assay: Kinase inhibition assay (33P transfer), Itk; settings: Table 3; read-out: Itk-1
# T6 construct: Kinases are expressed as either kinase domains or full length constructs; made in house
# T6 sequence (Q08881 1-620): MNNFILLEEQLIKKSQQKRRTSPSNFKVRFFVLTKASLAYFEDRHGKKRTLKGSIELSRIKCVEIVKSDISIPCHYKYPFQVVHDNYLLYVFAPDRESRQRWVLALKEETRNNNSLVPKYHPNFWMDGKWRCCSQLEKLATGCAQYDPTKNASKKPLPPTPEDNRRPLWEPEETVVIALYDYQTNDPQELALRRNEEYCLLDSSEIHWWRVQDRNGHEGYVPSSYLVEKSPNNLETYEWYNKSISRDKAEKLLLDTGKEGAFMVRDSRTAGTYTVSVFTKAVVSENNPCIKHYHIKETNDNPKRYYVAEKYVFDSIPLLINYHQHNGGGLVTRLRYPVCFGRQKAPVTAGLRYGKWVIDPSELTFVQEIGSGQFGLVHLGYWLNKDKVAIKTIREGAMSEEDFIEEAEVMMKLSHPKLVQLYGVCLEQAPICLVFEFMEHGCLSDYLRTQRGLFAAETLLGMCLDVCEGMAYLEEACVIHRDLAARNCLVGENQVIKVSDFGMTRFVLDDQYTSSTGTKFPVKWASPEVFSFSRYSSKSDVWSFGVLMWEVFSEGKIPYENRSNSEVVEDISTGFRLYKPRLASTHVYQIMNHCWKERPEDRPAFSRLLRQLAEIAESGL
# Procedure, shortened: as §2
# [7] = molecular target: T7, Kdr (Homo sapiens, UniProt P35968); assay: Kinase inhibition assay (33P transfer), Kdr; settings: Table 3; read-out: KDR-1
# T7 construct: Kinases are expressed as either kinase domains or full length constructs; made in house
# T7 sequence (P35968 20-1356, species assumed): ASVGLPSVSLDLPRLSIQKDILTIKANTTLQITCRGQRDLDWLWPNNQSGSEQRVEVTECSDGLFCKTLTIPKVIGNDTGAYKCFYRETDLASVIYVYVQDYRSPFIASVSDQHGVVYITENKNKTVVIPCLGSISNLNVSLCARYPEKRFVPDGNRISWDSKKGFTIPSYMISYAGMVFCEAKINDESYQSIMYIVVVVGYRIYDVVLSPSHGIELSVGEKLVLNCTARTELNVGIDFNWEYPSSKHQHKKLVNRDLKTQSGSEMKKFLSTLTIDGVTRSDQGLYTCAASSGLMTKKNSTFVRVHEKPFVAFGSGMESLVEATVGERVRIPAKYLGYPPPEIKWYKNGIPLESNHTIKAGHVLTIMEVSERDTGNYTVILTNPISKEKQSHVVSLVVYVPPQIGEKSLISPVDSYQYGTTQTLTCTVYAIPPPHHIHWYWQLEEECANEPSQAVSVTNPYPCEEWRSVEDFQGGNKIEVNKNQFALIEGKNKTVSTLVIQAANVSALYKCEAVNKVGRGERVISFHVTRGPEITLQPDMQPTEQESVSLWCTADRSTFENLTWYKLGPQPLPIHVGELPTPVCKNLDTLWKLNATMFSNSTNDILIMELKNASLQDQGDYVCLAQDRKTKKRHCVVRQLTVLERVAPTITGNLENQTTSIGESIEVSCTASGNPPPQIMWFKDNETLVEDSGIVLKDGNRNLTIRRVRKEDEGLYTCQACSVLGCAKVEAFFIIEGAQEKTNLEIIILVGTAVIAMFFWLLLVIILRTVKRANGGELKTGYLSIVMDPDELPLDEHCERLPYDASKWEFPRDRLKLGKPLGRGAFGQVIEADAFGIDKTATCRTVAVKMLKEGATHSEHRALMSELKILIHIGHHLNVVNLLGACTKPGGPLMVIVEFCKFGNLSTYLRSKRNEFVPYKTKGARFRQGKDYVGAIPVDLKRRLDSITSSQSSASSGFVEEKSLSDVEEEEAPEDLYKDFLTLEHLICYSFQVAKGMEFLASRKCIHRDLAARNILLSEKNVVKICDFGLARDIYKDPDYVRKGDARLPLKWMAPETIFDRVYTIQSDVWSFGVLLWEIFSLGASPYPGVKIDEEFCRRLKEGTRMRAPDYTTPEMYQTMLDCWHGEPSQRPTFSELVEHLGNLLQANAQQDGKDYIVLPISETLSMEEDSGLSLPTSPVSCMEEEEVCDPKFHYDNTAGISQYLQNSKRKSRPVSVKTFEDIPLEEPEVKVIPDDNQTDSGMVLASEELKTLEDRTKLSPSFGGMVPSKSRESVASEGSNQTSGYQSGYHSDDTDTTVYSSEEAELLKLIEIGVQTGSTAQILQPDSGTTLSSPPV
# Procedure, shortened: as §1
# [8] = molecular target: T8, c-Met (Homo sapiens, UniProt P08581); assay: Kinase inhibition assay (33P transfer), c-Met; settings: Table 2, kinase inhibition class; read-out: Met-1
# T8 construct: Kinases are expressed as either kinase domains or full length constructs; made in house
# Procedure, shortened: as §2
# [9] = molecular target: T9, IGFR-1 (Homo sapiens, UniProt P08069); assay: Kinase inhibition assay (33P transfer), IGFR-1; settings: Table 2, kinase inhibition class
# T9 construct: Kinases are expressed as either kinase domains or full length constructs; made in house
# T9 sequence (P08069 31-1367): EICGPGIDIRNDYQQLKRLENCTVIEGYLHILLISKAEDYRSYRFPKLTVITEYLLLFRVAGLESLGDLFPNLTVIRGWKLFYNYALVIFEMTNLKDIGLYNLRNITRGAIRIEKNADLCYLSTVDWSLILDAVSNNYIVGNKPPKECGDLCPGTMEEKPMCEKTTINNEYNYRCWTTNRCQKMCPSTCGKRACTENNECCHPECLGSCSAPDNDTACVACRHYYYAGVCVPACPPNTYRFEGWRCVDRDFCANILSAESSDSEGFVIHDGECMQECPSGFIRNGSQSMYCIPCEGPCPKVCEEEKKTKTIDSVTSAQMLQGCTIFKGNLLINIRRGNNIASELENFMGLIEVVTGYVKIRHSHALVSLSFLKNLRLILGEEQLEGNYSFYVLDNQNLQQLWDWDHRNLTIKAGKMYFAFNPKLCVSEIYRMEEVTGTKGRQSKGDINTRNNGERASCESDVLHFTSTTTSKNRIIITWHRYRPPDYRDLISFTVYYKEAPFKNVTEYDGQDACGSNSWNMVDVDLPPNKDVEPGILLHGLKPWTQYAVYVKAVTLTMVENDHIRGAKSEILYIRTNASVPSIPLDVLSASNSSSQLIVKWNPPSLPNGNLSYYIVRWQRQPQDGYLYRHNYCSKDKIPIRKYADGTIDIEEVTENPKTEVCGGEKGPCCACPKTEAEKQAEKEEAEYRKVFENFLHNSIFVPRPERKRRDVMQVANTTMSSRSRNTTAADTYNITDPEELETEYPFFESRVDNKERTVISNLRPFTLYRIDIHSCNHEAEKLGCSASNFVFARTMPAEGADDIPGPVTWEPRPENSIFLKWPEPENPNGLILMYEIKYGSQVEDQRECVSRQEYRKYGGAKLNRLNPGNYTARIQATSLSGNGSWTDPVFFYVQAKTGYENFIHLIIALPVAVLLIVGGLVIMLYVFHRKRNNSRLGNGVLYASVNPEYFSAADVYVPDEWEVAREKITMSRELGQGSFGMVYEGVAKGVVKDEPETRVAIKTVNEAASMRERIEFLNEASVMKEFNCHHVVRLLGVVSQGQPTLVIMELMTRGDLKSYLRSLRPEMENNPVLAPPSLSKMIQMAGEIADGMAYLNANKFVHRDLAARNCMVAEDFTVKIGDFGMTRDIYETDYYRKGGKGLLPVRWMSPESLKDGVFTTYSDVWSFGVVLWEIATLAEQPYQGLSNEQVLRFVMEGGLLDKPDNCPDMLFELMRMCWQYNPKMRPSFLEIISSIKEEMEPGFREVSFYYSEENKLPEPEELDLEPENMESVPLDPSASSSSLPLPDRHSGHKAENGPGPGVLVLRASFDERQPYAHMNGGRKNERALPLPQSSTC
# [10] = molecular target: T10, PDGFRB (Homo sapiens, UniProt P09619); assay: Kinase inhibition assay (33P transfer), PDGFRB; settings: read-out: PDGFRB-1
# T10 construct: Kinases are expressed as either kinase domains or full length constructs; made in house
# T10 sequence (P09619 33-1106, species assumed): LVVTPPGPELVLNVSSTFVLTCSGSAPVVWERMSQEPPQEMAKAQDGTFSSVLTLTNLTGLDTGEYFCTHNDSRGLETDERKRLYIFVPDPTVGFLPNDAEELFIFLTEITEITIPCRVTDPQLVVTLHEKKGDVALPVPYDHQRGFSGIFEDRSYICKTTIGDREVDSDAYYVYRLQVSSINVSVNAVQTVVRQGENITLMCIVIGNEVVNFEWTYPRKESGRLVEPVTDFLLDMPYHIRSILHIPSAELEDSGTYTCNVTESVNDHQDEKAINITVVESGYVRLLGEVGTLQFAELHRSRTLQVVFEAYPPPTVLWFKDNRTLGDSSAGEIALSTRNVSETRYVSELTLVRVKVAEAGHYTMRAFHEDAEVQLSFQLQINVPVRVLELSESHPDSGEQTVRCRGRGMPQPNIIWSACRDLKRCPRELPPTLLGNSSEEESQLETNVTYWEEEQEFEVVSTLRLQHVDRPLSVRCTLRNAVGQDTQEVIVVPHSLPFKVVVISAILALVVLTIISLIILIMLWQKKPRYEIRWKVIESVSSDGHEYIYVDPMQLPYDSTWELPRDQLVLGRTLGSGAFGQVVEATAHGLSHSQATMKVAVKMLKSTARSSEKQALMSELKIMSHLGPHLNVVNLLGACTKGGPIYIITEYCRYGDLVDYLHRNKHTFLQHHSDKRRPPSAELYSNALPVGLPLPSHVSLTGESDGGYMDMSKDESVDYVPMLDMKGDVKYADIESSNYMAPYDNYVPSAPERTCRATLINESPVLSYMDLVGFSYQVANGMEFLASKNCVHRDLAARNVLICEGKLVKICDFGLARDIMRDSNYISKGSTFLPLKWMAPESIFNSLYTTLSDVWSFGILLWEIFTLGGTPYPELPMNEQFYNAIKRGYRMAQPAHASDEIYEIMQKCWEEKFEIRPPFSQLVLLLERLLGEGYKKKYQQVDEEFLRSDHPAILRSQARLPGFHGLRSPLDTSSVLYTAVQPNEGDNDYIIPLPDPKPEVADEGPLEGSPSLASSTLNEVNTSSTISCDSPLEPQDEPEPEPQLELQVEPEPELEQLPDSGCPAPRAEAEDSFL
# [11] = molecular target: T11, ErbB4 (Homo sapiens, UniProt Q15303); assay: Kinase inhibition assay (33P transfer), ErbB4; settings: read-out: ErbB4-1
# T11 construct: Kinases are expressed as either kinase domains or full length constructs; made in house
# [12] = molecular target: T12, FGFR1 (Homo sapiens, UniProt P11362); assay: Kinase inhibition assay (33P transfer), FGFR1; settings: read-out: FGFR1-1
# T12 construct: Kinases are expressed as either kinase domains or full length constructs; made in house
structure (smiles),measurement,setting,value
COc1cc(Nc2ncnc(-n3c(Nc4cccc(C(N)=O)c4)nc4ccccc43)n2)cc(OC)c1OC [Compound 377],IC50,[1],0.78 to 4.68 µM
same,IC50,[2],> 8.78 µM
same,IC50,[3],> 8.78 µM
same,IC50,[4],> 8.78 µM
same,IC50,[5],0.78 to 4.68 µM
same,IC50,[6],6.83 to 8.78 µM
same,IC50,[7],0.78 to 4.68 µM
same,IC50,[8],6.83 to 8.78 µM
same,IC50,[9],4.68 to 6.83 µM
same,IC50,[10],< 0.78 µM
same,IC50,[11],> 8.78 µM
same,IC50,[12],< 0.78 µM
COc1cc(Nc2ncnc(Nc3ccc(OCc4ccccc4)cc3)n2)cc(OC)c1OC [Compound 926],IC50,[1],0.871 to 5.22 µM
same,IC50,[2],0.871 to 5.22 µM
same,IC50,[3],0.871 to 5.22 µM
same,IC50,[4],5.22 to 7.62 µM
same,IC50,[5],5.22 to 7.62 µM
same,IC50,[6],> 9.79 µM
same,IC50,[7],< 0.871 µM
same,IC50,[8],7.62 to 9.79 µM
same,IC50,[9],> 9.79 µM
same,IC50,[10],< 0.871 µM
same,IC50,[11],> 9.79 µM
same,IC50,[12],0.871 to 5.22 µM
COc1cc(Nc2ncnc(-c3c(O)[nH]c4ccccc34)n2)cc(OC)c1OC [Compound 380],IC50,[1],> 11.4 µM
same,IC50,[2],1.02 to 6.1 µM
same,IC50,[3],> 11.4 µM
same,IC50,[4],1.02 to 6.1 µM
same,IC50,[5],> 11.4 µM
same,IC50,[6],> 11.4 µM
same,IC50,[7],< 1.02 µM
same,IC50,[8],> 11.4 µM
same,IC50,[9],6.1 to 8.9 µM
same,IC50,[10],< 1.02 µM
same,IC50,[11],1.02 to 6.1 µM
same,IC50,[12],< 1.02 µM
COc1cc(Nc2ncnc(Nc3ccc(O)cc3)n2)cc(OC)c1OC [Compound 85],IC50,[1],< 1.08 µM
same,IC50,[2],< 1.08 µM
same,IC50,[3],< 1.08 µM
same,IC50,[4],< 1.08 µM
same,IC50,[5],> 12.2 µM
same,IC50,[6],1.08 to 6.5 µM
same,IC50,[7],< 1.08 µM
same,IC50,[8],> 12.2 µM
same,IC50,[9],1.08 to 6.5 µM
same,IC50,[10],< 1.08 µM
same,IC50,[11],1.08 to 6.5 µM
same,IC50,[12],< 1.08 µM
COc1cc(Nc2ncnc(-n3c(Nc4ccc(F)cc4)nc4ccccc43)n2)cc(OC)c1OC [Compound 387],IC50,[1],0.821 to 4.92 µM
same,IC50,[2],0.821 to 4.92 µM
same,IC50,[3],> 9.23 µM
same,IC50,[4],> 9.23 µM
same,IC50,[5],> 9.23 µM
same,IC50,[6],> 9.23 µM
same,IC50,[7],< 0.821 µM
same,IC50,[8],7.18 to 9.23 µM
same,IC50,[9],> 9.23 µM
same,IC50,[10],< 0.821 µM
same,IC50,[11],> 9.23 µM
same,IC50,[12],0.821 to 4.92 µM
COC(=O)c1cccc(Nc2ncnc(Nc3cc(-c4ccco4)n[nH]3)n2)c1 [Compound 344],IC50,[1],1.06 to 6.36 µM
same,IC50,[2],> 11.9 µM
same,IC50,[3],> 11.9 µM
same,IC50,[4],> 11.9 µM
same,IC50,[5],> 11.9 µM
same,IC50,[6],> 11.9 µM
same,IC50,[7],< 1.06 µM
same,IC50,[8],1.06 to 6.36 µM
same,IC50,[9],1.06 to 6.36 µM
same,IC50,[10],6.36 to 9.27 µM
same,IC50,[11],> 11.9 µM
same,IC50,[12],< 1.06 µM
COc1cccc(Nc2ncnc(Nc3cc(OC)c(OC)c(OC)c3)n2)c1 [Compound 87],IC50,[1],1.04 to 6.26 µM
same,IC50,[2],1.04 to 6.26 µM
same,IC50,[3],1.04 to 6.26 µM
same,IC50,[4],1.04 to 6.26 µM
same,IC50,[5],9.13 to 11.7 µM
same,IC50,[6],> 11.7 µM
same,IC50,[7],1.04 to 6.26 µM
same,IC50,[8],> 11.7 µM
same,IC50,[9],< 1.04 µM
same,IC50,[10],< 1.04 µM
same,IC50,[11],9.13 to 11.7 µM
same,IC50,[12],6.26 to 9.13 µM
COc1cc(Nc2ncnc(Nc3cc(OC)c(OC)c(OC)c3)n2)cc(OC)c1 [Compound 86],IC50,[1],0.968 to 5.81 µM
same,IC50,[2],> 10.9 µM
same,IC50,[3],0.968 to 5.81 µM
same,IC50,[4],8.47 to 10.9 µM
same,IC50,[5],> 10.9 µM
same,IC50,[6],> 10.9 µM
same,IC50,[7],< 0.968 µM
same,IC50,[8],> 10.9 µM
same,IC50,[9],< 0.968 µM
same,IC50,[10],0.968 to 5.81 µM
same,IC50,[11],0.968 to 5.81 µM
same,IC50,[12],> 10.9 µM
